Experimental data as given in patent publication US11951155B2, “Pea-derived peptide with muscle-building effect and preparation method thereof, and drug and use” (Zhongshi Duqing(Shandong) Biotech Co., Ltd, priority 2022, dated 2024).
“And” between values parts separate entries of the source, which are not always exact repeats. Equal entries are not always repeated. Ends that are not written are not given here.

Key:
[1] = tested on: IGF-1R, cyclinD1, CDK6, p-AMPK in C2C12 cells; experiment: Western blot of growth and proliferation-related proteins in C2C12 cells; assay type: cell-based; settings: skeletal muscle cells treated with one peptide alone
Source text: The C2C12 cells in a logarithmic growth phase were inoculated into a 6-well plate at 1×10^6; the cells were divided into 6 groups, namely a blank control group (CN), and sample groups including a pea-derived peptide PP1 group (PP1), a pea-derived peptide PP2 group (PP2), a pea-derived peptide PP3 group (PP3), a pea-derived peptide PP4 group (PP4), and a pea-derived peptide PP5 group (PP5). Each treatment group was set to duplicate 3 wells, with approximately 1,000,000 cells per well; a sample having a concentration of 0.4 μg/ml was added to the cells of the sample groups, and each treatment group was set to 3 duplicate wells. After co-incubating for 24 h, the cells in different treatment groups were collected, fully lysed, and a total protein was extracted, and a protein concentration was determined using a nucleic acid protein analyzer. The protein sample was mixed with a loading buffer thoroughly, denatured at 100° C. for 10 min, and subjected to SDS-PAGE gel electrophoresis. The program included: 80 V for 30 min; 100 V for 80 min. Membrane transfer was conducted, where the membrane transfer procedure was conducted at 100 V for 90 min. After transferring, the sample was placed in a 5% skimmed milk powder, and sealed in a shaker at room temperature for 1 h. GAPDH antibody (1:2000) and PCNA antibody, AMPK antibody, p-AMPK antibody, IGF-1 antibody (1:1000) were added separately, and allowed to stand at 4° C. overnight. A secondary antibody (1:20000) was added, and incubated at room temperature for 1 h. The membrane was washed 3 times with TBST, and a Pierce-enhanced luminescent agent was added, and exposure was conducted by an automatic exposure machine.

C2C12 cells = experiment: C2C12 cell proliferation assay (CCK-8, OD at 450 nm); assay type: cell-based; settings: for cell concentration compared with CN group: co-incubated 48 h, 0.4 μg/ml; for OD value, Average value / OD value, Repeated three groups: sample 0.4 μg/ml, OD 450 nm; for OD value, Repeated three groups: single replicates
Protocol: The C2C12 cells in a logarithmic growth phase were inoculated into a 96-well plate; the cells were divided into 4 groups, namely a blank control group (CN, without any peptide fractions), a pea-derived peptide S1 group, a pea-derived peptide S2 group, and a pea-derived peptide S3 group; each treatment group was set to duplicate 3 wells, with approximately 1,000 cells per well. Except for the blank control group, 0.4 μg/ml pea-derived peptide was added to the cells, and 10 μL of a CCK-8 solution was added separately at 0 h, 12 h, 24 h, 36 h, and 48 h, and mixed well; the cells were incubated in a CO2 incubator at 37° C. for 2 h, an OD value was measured using a microplate reader at 450 nm, and a cell proliferation curve was drawn.
The C2C12 cells in a logarithmic growth phase were inoculated into a 96-well plate; the cells were divided into 6 groups, namely a blank control group (CN, without any peptide fractions), and sample groups including a pea-derived peptide PP1 group (PP1), a pea-derived peptide PP2 group (PP2), a pea-derived peptide PP3 group (PP3), a pea-derived peptide PP4 group (PP4), and a pea-derived peptide PP5 group (PP5). Each treatment group was set to 3 duplicate wells, with approximately 1,000 cells per well. A sample having a concentration of 0.4 μg/ml was added to the cells of the sample groups, and 10 μL of a CCK-8 solution was added separately at 0 h, 12 h, 24 h, 36 h, and 48 h, and mixed well; the cells were incubated in a CO2 incubator at 37° C. for 2 h, an OD value was measured using a microplate reader at 450 nm, and a cell proliferation curve was drawn.

pepsin and trypsin = experiment: In vitro digestion test with pepsin and trypsin; assay type: in vitro ADME; settings: 500 mg/L; pepsin 20 mg/g pH 2.0 37° C. 90 min, then trypsin 40 mg/g pH 7.5 37° C. 150 min; HPLC or LC-MS
Protocol: A pea-derived peptide aqueous solution and a pea-derived peptide PP2 aqueous solution with a mass concentration of 500 mg/L were prepared separately, pepsin (20 mg/g) was added, a pH value was adjusted to 2.0, and the two aqueous solutions were treated in a water bath at a constant temperature of 37° C. for 90 min. Following the water bath, the pH value was adjusted to 7.5, trypsin (40 mg/g) was added, and the two aqueous solutions were treated in the water bath at a constant temperature of 37° C. for 150 min. Following the water bath, the two solutions were placed in a 95° C. water bath for 5 min to inactivate the enzyme. The samples were freeze-dried and analyzed by HPLC to compare changes in the liquid chromatograms before and after digestion. Also provided were undigested pea-derived peptide and pea-derived peptide digested only by pepsin but not by trypsin.
Pea-derived peptide PP2 was digested in vitro according to the method of Example 4.

Substance | expression of IGF-1R, cyclinD1, CDK6 and p-AMPK [1] | cell concentration compared with CN group (C2C12 cells) | OD value, Average value (C2C12 cells; treatment time 0 h) | OD value, Repeated three groups (C2C12 cells; treatment time 0 h) | OD value, Average value (C2C12 cells; treatment time 12 h) | OD value, Repeated three groups (C2C12 cells; treatment time 12 h) | OD value, Average value (C2C12 cells; treatment time 24 h) | OD value, Repeated three groups (C2C12 cells; treatment time 24 h) | OD value, Average value (C2C12 cells; treatment time 36 h) | OD value, Repeated three groups (C2C12 cells; treatment time 36 h) | OD value, Average value (C2C12 cells; treatment time 48 h) | OD value, Repeated three groups (C2C12 cells; treatment time 48 h) | stability after digestion by pepsin and trypsin (pepsin and trypsin)
EGSLLLPH | significantly increase expression | increases significantly | 0.35 | 0.28 and 0.35 and 0.41 | 0.53 | 0.52 and 0.66 and 0.42 | 1.26 | 1.24 and 1.07 and 1.48 | 1.73 | 1.77 and 1.62 and 1.81 | 1.95 | 1.96 and 1.78 and 2.10 | –
LDLPVL [PP2, Leu-Asp-Leu-Pro-Val-Leu] | – | – | – | – | – | – | – | – | – | – | – | – | not digested and degraded by the pepsin and trypsin
LLYVIR | significantly increase expression | increases significantly | 0.38 | 0.36 and 0.52 and 0.27 | 0.50 | 0.42 and 0.51 and 0.56 | 1.34 | 1.08 and 1.62 and 1.32 | 1.84 | 1.95 and 1.83 and 1.74 | 2.11 | 2.07 and 2.32 and 1.95 | –
NTNYEEIEKVL | significantly increase expression | increases significantly | 0.36 | 0.44 and 0.27 and 0.36 | 0.557 | 0.43 and 0.53 and 0.71 | 1.42 | 1.41 and 1.66 and 1.19 | 1.88 | 1.72 and 2.06 and 1.86 | 2.12 | 1.98 and 2.32 and 2.05 | –
TNYEEIEKVLL | significantly increase expression | increases significantly | 0.33 | 0.41 and 0.37 and 0.22 | 0.56 | 0.54 and 0.45 and 0.68 | 1.33 | 1.31 and 1.06 and 1.62 | 1.86 | 2.03 and 1.67 and 1.89 | 2.09 | 1.87 and 2.11 and 2.28 | –
